Results as given in patent publication US20230293517A1, “ANTAGONIST COMPOUNDS” (AdoRx Therapeutics Limited, priority 2020, published 2023).

Columns and labels:
[1] = test system: immature monocyte-derived dendritic cells (MoDC); test: MoDC pCREB assay; format: cell-based, human; details: Homo sapiens, Dendritic cell; pCREB in immature MoDC, 1 μM NECA, rolipram
Description: Monocytes are isolated from human whole blood using CD14 microbeads (Miltenyi Biotec 130-050-201) and differentiated to immature monocyte-derived dendritic cells (MoDC) by culture for 5 days in Mo-DC Differentiation Medium (Miltenyi Biotec 130-094-812). MoDCs are seeded into fresh medium into U bottomed 96 well culture plates and pre-incubated at 37° C. with serial dilutions of A2A/B antagonists for 15 min. At the same time the cells are co-incubated with the phosphodiesterase inhibitor rolipram (final concentration of 20 µM) to amplify the subsequent pCREB response. Adenosine receptor agonist NECA is then added at 1 μM final concentration, leading to an increase in CREB phosphorylation. Following a 45 min incubation at 37° C., the cells are fixed, permeabilized and stained with directly conjugated fluorescent antibodies to phospho-CREB (Alexa Fluor 488), CD209 (PerCP-Cy5.5) and CD86 (APC). Samples are analysed by FACS to measure fluorescence in corresponding channels, and also forward and Side scatter. The population of CD209+/CD86− low cells corresponding to immature dendritic cells is gated for analysis of pCREB levels.
Approximately 5% of the analysed cells are positive for detection of pCREB in the absence of agonist stimulation, representing the background signalling of all pathways upstream of CREB. Following NECA stimulation this is increased to ˜80% pCREB+ve, and this increase is essentially fully reversible by A2B or dual A2A/B antagonists.
IC50 is represented as the point of inflection of a sigmoidal curve

[2] = molecular target: human Adenosine A1 receptor (Homo sapiens (Human), UniProt P30542); test: Adenosine receptor TR-FRET binding assay (A1); details: inhibition of binding of 100 nM CA200645, CHO cell membranes
How it was run: (§1)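 CHO membranes, Tb-labelled hA1/hA2a/hA2b/hA3; tracer CA200645 at 100 nM (A1, A2a, A3) or 30 nM (A2b); buffer with saponin, 1% DMSO, pluronic; 2 h RT. NSB with 10 μM XAC. Read TR-FRET (ex 337, em 620/665 nm); IC50 → Ki via Cheng–Prusoff.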

[3] = molecular target: human Adenosine A2b receptor (Homo sapiens (Human), UniProt P29275); test: Adenosine receptor TR-FRET binding assay (A2b); details: TR-FRET, inhibition of binding of 30 nM CA200645, CHO cell membranes
How it was run: as §1

[4] = molecular target: human Adenosine A2a receptor (Homo sapiens (Human), UniProt P29274); test: Adenosine receptor TR-FRET binding assay (A2a); details: inhibition of binding of 100 nM CA200645, CHO cell membranes
How it was run: as §1

[5] = molecular target: human Adenosine A3 receptor (Homo sapiens (Human), UniProt P0DMS8); test: Adenosine receptor TR-FRET binding assay (A3); details: inhibition of binding of 100 nM CA200645, CHO cell membranes
How it was run: as §1

[6] = test system: human PBMCs; test: CD3/CD28 stimulated IL-2 release NECA reversal assay in human PBMCs; format: cell-based; details: PBMC, 1 uM NECA, 24 hours, IL-2 in culture supernatant
How it was run: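 PBMCs from citrated healthy-donor blood plated at 50,000 cells/well on 1 ug/ml CD3 antibody with 1 ug/ml CD28 antibody, 1 uM NECA and 0.003-10 μM antagonist (final), 24 h at 37° C. Supernatant IL-2 measured by MSD immunoassay; % inhibition set against no-NECA control wells as 100%.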

[7] = test system: CD8+T cells in human whole blood; test: Measurement of pCREB in CD8+T cells in human whole blood; format: cell-based; details: 3 μM NECA, rolipram
How it was run: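 Heparinised human whole blood pre-incubated 20 min at 37 °C with serially diluted A2a antagonists plus rolipram, then stimulated 60 min with 3 μM NECA (final). After fixation and red-cell lysis, white cells were permeabilized and stained for phospho-CREB and CD8; pCREB in CD8+ T cells measured by flow cytometry.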

Sequence of human Adenosine A2a receptor (P29274 whole entry): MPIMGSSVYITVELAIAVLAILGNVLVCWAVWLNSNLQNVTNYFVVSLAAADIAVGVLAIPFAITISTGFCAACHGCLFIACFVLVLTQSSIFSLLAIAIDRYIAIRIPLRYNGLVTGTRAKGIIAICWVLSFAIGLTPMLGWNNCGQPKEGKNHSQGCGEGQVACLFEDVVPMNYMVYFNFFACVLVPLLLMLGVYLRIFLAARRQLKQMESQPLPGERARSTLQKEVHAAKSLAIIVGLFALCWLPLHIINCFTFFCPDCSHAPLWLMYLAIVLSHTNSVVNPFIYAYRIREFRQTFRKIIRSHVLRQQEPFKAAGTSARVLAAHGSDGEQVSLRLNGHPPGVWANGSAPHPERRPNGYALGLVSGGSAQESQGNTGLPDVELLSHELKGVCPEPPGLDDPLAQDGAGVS
Sequence of human Adenosine A1 receptor (P30542 whole entry): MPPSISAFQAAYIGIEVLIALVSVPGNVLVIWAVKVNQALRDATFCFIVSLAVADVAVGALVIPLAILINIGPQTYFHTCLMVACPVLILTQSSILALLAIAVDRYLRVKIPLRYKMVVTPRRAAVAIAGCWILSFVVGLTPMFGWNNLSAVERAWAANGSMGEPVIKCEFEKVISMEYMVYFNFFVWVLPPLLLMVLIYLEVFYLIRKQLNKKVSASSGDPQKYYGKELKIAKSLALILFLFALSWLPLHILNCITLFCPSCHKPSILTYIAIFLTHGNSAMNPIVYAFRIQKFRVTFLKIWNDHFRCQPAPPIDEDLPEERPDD
Sequence of human Adenosine A2b receptor (P29275 whole entry): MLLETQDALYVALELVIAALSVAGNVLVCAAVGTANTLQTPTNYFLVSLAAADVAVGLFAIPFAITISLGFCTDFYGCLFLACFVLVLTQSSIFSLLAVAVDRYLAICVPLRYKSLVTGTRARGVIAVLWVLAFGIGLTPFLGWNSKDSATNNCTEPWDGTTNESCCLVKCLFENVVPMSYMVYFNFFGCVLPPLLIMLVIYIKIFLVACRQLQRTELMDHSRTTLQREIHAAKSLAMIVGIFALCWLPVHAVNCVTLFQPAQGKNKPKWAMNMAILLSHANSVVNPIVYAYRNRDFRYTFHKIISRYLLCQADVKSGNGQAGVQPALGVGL
Sequence of human Adenosine A3 receptor (P0DMS8 whole entry): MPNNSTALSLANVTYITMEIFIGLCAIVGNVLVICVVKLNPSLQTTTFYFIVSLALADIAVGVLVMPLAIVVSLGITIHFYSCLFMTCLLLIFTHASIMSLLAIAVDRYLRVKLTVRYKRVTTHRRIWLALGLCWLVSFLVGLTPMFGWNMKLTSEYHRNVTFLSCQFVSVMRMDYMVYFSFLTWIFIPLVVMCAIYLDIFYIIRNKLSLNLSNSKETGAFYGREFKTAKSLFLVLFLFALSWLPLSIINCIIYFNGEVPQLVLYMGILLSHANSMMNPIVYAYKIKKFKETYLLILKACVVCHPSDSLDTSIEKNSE

SMILES | IC50 [1] [nM] | Ki [2] [nM] | Ki [3] [nM] | Ki [4] [nM] | Ki [5] [nM] | IC50 [6] [nM] | IC50 [7] [nM]
Cc1cc(-c2sc(NC(=O)N3CCC(S(N)(=O)=O)C3)nc2-c2cccc(C#N)c2)cc(C)n1 (stereo not shown) [Example 6.2, N-[4-(3-Cyanophenyl)-5-(2,6-dimethyl-4-pyridyl)thiazol-2-yl]-3-sulfamoyl-pyrrolidine-1-carboxamide] | 28 | 24 | 0.9 | 1.28 | 166 |  | 
CCc1cc(-c2sc(NC(=O)N3CC4(COC4)C3)nc2-c2cccc(C#N)c2)cc(C)n1 [Example 16.9] | 18 | 9 | 0.8 | 0.1 | 350 |  | 
Cc1cc(-c2sc(NC(=O)N3CCC(C)(C#N)CC3)nc2-c2cccc(C#N)c2)cc(C(C)(C)O)n1 [Example 12, 4-Cyano-N-[4-(3-cyanophenyl)-5-[2-(1-hydroxy-1-methyl-ethyl)-6-methyl-4-pyridyl]thiazol-2-yl]-4-methyl-piperidine-1-carboxamide] | 73 | 6 | 3.1 | 0.16 | 930 |  | 
Cc1cc(-c2sc(NC(=O)N3CC4(COC4)C3)nc2-c2cccc(C#N)c2)cc(C2COC2)n1 [Example 16.4] | 36 | 12 | 3.3 | 0.13 | 1710 |  | 
Cc1cc(-c2sc(NC(=O)N3CC4(COC4)C3)nc2-c2cccc(C#N)c2)cc(Cl)n1 [Example 6.100, N-[5-(2-Chloro-6-methyl-4-pyridyl)-4-(3-cyanophenyl)thiazol-2-yl]-2-oxa-6-azaspiro[3.3]heptane-6-carboxamide] | 10 | 25 | 0.6 | 0.16 | 549 |  | 
Cc1cc(-c2sc(NC(=O)N3CCNCC3)nc2-c2cccc(C#N)c2)cc(C)n1 [Example 7, N-[4-(3-Cyanophenyl)-5-(2,6-dimethyl-4-pyridyl)thiazol-2-yl]piperazine-1-carboxamide] |  | 42 | 11.1 | 2.81 | 304 | 16 | 580
Cc1cc(-c2sc(NC(=O)N3CCS(=N)(=O)CC3)nc2-c2cccc(C#N)c2)cc(Cl)n1 [Example 3.12] |  | 18 | 1 | 0.25 | 531 | 8 | 600
Cc1cc(-c2sc(NC(=O)N3CCC4(CCOCC4)C3)nc2-c2cccc(C#N)c2)cc(C)n1 [Example 6.29, N-[4-(3-Cyanophenyl)-5-(2,6-dimethyl-4-pyridyl)thiazol-2-yl]-8-oxa-2-azaspiro[4.5]decane-2-carboxamide] |  | 228 | 3.4 | 0.95 | 635 | 5.3 | 510
Cc1cc(-c2sc(NC(=O)N3CC[C@H](O)C3)nc2-c2cccc(C#N)c2)cc(C)n1 [Example 4.5, (3S)-N-[4-(3-Cyanophenyl)-5-(2,6-dimethyl-4-pyridyl)thiazol-2-yl]-3-hydroxy-pyrrolidine-1-carboxamide] |  | 16 | 1.4 | 1.54 | 94 | 8.5 | 160
Cc1cc(-c2sc(NC(=O)N3CCS(=N)(=O)CC3)nc2-c2cccc(C#N)c2)cc(C(F)F)n1 [Example 16.1] |  | 22 | 2.2 | 0.29 | 257 | 6.7 | 120
